Each structure is given as a SMILES string.

The target of the experiment is T1, Recombinant (1-346) HPK1 (h) (Homo sapiens, UniProt Q92918).
T1 construct: Recombinant (1-346) HPK1 (h) is incubated with 8 mM MOPS pH 7.0
T1 sequence (Q92918 1-346): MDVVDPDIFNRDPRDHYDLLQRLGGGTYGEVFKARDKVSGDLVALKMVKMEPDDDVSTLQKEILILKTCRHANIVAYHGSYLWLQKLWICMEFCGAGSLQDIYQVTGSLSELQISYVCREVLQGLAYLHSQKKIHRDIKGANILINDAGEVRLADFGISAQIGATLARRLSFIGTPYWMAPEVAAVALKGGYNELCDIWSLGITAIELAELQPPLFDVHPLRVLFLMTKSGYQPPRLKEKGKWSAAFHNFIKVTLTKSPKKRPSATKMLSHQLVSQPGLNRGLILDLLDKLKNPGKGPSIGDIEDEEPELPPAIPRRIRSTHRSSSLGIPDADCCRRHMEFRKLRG
Description: HPK1 Human STE Kinase Enzymatic Radiometric Assay. The format is biochemical. The note with it: read-out: HPK1 IC50 nM Range*. Here is the method: A stock solution of 10 mM of test compound is prepared in DMSO. The compound plate was prepared by 3-fold and 9-point serial dilutions. […] The reaction is initiated by The addition of the Mg/ATP mix. After incubation for 40 minutes at RT, the reaction is stopped by the addition of phosphoric acid to a concentration of 0.5%.
On to `COCCN(C)Cc1nc(-c2cc(-c3cc4c(cc3F)C(=O)NCC4)c(N)nc2F)ccc1N1CCOCC1` [I-583, 6-(6′-amino-2′-fluoro-6-(((2-methoxyethyl)(methyl)amino)methyl)-5-morpholino-[2,3′-bipyridin]-5′-yl)-7-fluoro-3,4-dihydroisoquinolin-1(2H)-one], for which the IC50 – broadly, the concentration needed to halve the response being measured – is 0.1 to 10 nM.

As to `CC(C)(N)c1cc(-c2cc(-c3ccc4c(c3)CCNC4=O)c(N)nc2F)ccc1F` [I-625, 6-(2-amino-5-(3-(2-aminopropan-2-yl)-4-fluorophenyl)-6-fluoropyridin-3-yl)-3,4-dihydroisoquinolin-1(2H)-one], the IC50 is 101 to 1000 nM.

On to `Cc1[nH]c(=O)c2ccc(-c3cc(-c4ccc(C5CCOCC5)c(CN(C)C)c4)c(F)nc3N)cc2c1F` [I-521, 6-(2-amino-5-(3-((dimethylamino)methyl)-4-(tetrahydro-2H-pyran-4-yl)phenyl)-6-fluoropyridin-3-yl)-4-fluoro-3-methylisoquinolin-1(2H)-one], for which the IC50 fell in the range of 11 to 100 nM.

Consider `CN1CCC[C@H]1c1cccc(-c2cc(-c3ccc4c(c3)CCNC4=O)c(N)nc2F)c1` [I-443, (S)-6-(2-amino-6-fluoro-5-(3-(1-methylpyrrolidin-2-yl)phenyl)pyridin-3-yl)-3,4-dihydroisoquinolin-1(2H)-one], for which the IC50 was in the range of 101 to 1000 nM.

Regarding `CC(C)(C)OC(=O)N1CCN(c2ccc(-c3cc(-c4ccc5c(c4)CCNC5=O)c(N)nc3F)nc2)CC1` [I-590, tert-butyl4-(6′-amino-2′-fluoro-5′-(1-oxo-1,2,3,4-tetrahydroisoquinolin-6-yl)-[2,3′-bipyridin]-5-yl) piperazine-1-carboxylate], the IC50 was in the range of 0.1 to 10 nM.

As for `CC(C)N1CCN(c2ccc(-c3cc(-c4cc(F)c5c(=O)[nH]cc(Cl)c5c4)c(N)nc3F)cc2)CC1` [I-489, 6-(2-amino-6-fluoro-5-(4-(4-isopropylpiperazin-1-yl)phenyl)pyridin-3-yl)-4-chloro-8-fluoroisoquinolin-1(2H)-one], the IC50 lay within 0.1 to 10 nM.

For `CN(C)Cc1cc(-c2cc(-c3cc4c(cc3F)C(=O)NCC4)c(N)nc2F)ccc1N1CCSCC1` [I-488, 6-(2-amino-5-(3-((dimethylamino)methyl)-4-thiomorpholinophenyl)-6-fluoropyridin-3-yl)-7-fluoro-3,4-dihydroisoquinolin-1(2H)-one], the IC50 fell in the range of 0.1 to 10 nM.

Consider `COC1CN(Cc2cc(-c3cc(-c4ccc5c(c4)CCNC5=O)c(N)nc3F)ccc2N2CCOCC2)C1` [I-522, 6-(2-amino-6-fluoro-5-(3-((3-methoxyazetidin-1-yl)methyl)-4-morpholinophenyl)pyridin-3-yl)-3,4-dihydroisoquinolin-1(2H)-one], for which the IC50 was in the range of 11 to 100 nM.

Take `C[C@@H]1CN(c2ccc(-c3cc(-c4ccc5c(c4)CCNC5=O)c(N)nc3F)cc2CN(C)C)CCO1` [I-575, (R)-6-(2-amino-5-(3-((dimethylamino)methyl)-4-(2-methylmorpholino)phenyl)-6-fluoropyridin-3-yl)-3,4-dihydroisoquinolin-1(2H)-one]: the IC50 lay in the range of 11 to 100 nM.

With `CN(Cc1cc(-c2cc(-c3ccc4c(c3)CCNC4=O)c(N)nc2F)ccc1N1CCOCC1)CC1CCCO1` (stereo not drawn) [I-616, 6-(2-amino-6-fluoro-5-(3-((methyl((tetrahydrofuran-2-yl)methyl)amino)methyl)-4-morpholinophenyl)pyridin-3-yl)-3,4-dihydroisoquinolin-1(2H)-one], the IC50 was in the range of 0.1 to 10 nM.

In the case of `Cc1nc2cc(-c3cc(-c4ccc(N5C[C@@H](C)O[C@@H](C)C5)c(CN(C)C)c4)c(F)nc3N)ccc2c(=O)[nH]1` [I-595, 7-(2-amino-5-(3-((dimethylamino)methyl)-4-((2R,6S)-2,6-dimethylmorpholino)phenyl)-6-fluoropyridin-3-yl)-2-methylquinazolin-4(3H)-one], the IC50 fell in the range of 11 to 100 nM.

In the case of `Cc1c[nH]c(=O)c2ccc(-c3cc(-c4ccc(C5CCOCC5)cc4)c(F)nc3N)cc12` [I-586, 6-(2-amino-6-fluoro-5-(4-(tetrahydro-2H-pyran-4-yl)phenyl)pyridin-3-yl)-4-methylisoquinolin-1(2H)-one], the IC50 is 11 to 100 nM.
